The values that follow come from PubChem BioAssay (NCI).

Among the test systems are OVCAR-4 ovarian; RPMI-8226 leukemia; K-562 leukemia; XF 498 CNS; SF-268 CNS; A498 renal; HOP-18 NSCLC; SW-620 colon; MDA-MB-231 breast; SK-MEL-5 melanoma.
Assay in all cases: inhibition of tumour cell growth, NCI panel, 48 h

Structures are written as SMILES.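 Tested at 5 concentrations; 48 h exposure; 96-well plates; endpoints linearly interpolated, else capped at highest concentration. At the GI50, growth is halved. TGI is the concentration that stops growth completely.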

For the compound `C1C[S][Ge]2([S]CCO1)[S]CCOCC[S]2`, the GI50 in the assay on OVCAR-4 ovarian, in the assay with RPMI-8226 leukemia, in the assay on K-562 leukemia, in the assay with XF 498 CNS, with SF-268 CNS and with A498 renal was greater than 100 µM in each case. In addition, the TGI with OVCAR-4 ovarian, with RPMI-8226 leukemia, with K-562 leukemia, in the assay with XF 498 CNS, in the assay on SF-268 CNS and with A498 renal was greater than 100 µM throughout.

For the compound `Cc1c(-c2nnc(-c3ccc(Cl)cc3)o2)c(=O)n(-c2ccccc2)n1C`, the TGI with HOP-18 NSCLC, with SW-620 colon, in the assay with OVCAR-4 ovarian, in the assay with RPMI-8226 leukemia, in the assay with K-562 leukemia and in the assay on XF 498 CNS was greater than 100 µM throughout. The TGI in the assay with SF-268 CNS and in the assay with A498 renal was greater than 100 µM in each case.

In the case of `O=P(NC12CC3CC(CC(C3)C1)C2)(N1CC1)N1CC1`, the TGI in the assay on HOP-18 NSCLC, with SW-620 colon, in the assay on MDA-MB-231 breast, in the assay on OVCAR-4 ovarian, in the assay with RPMI-8226 leukemia and with K-562 leukemia was greater than 100 µM throughout. Also, the TGI with SK-MEL-5 melanoma, in the assay on SF-268 CNS and with A498 renal was greater than 100 µM throughout.

On to `O=C1N(c2ccccc2)C(=O)C2(SC=NN2Cc2ccccc2)N1c1ccccc1` (stereo not given), for which the TGI in the assay on HOP-18 NSCLC, in the assay with SW-620 colon, with OVCAR-4 ovarian, with K-562 leukemia, with XF 498 CNS and in the assay with SK-MEL-5 melanoma was greater than 100 µM each time. The TGI in the assay with SF-268 CNS and in the assay with A498 renal was greater than 100 µM each time.

Consider `COc1ccc(C2=NN(C(=O)c3cc(OC)c(OC)c(OC)c3)C(c3ccc(Cl)cc3)C2)cc1OC` (stereo not given), for which the GI50 is 1.6 µM with SW-620 colon; 2.27 µM in the assay on MDA-MB-231 breast; 5.22 µM with OVCAR-4 ovarian; 0.535 µM in the assay on RPMI-8226 leukemia; 0.777 µM with K-562 leukemia; 0.549 µM in the assay with SK-MEL-5 melanoma. Besides, the GI50 is 2.66 µM in the assay with SF-268 CNS and 0.608 µM with A498 renal. The TGI with SW-620 colon is greater than 100 µM; with MDA-MB-231 breast it was greater than 68.3 µM; with OVCAR-4 ovarian it was 49.6 µM; in the assay with RPMI-8226 leukemia, greater than 100 µM; in the assay on K-562 leukemia, greater than 100 µM; with SK-MEL-5 melanoma, 15.6 µM. The results for the TGI in the assay with SF-268 CNS and in the assay with A498 renal were 23.6 µM and 8.3 µM, respectively.

On to `CC(=O)c1cc2c(cc1Nc1c3ccccc3nc3occ(Cl)c13)OCO2`, for which the GI50 in the assay with SW-620 colon is 0.0344 µM; in the assay with MDA-MB-231 breast, 0.283 µM; in the assay with OVCAR-4 ovarian it was 82.9 µM; in the assay on RPMI-8226 leukemia, 0.0539 µM; with K-562 leukemia, 0.037 µM; in the assay on SK-MEL-5 melanoma it was 0.103 µM. In addition, the GI50 in the assay with SF-268 CNS was 0.697 µM; in the assay with A498 renal it was 0.105 µM. The TGI is greater than 100 µM in the assay with SW-620 colon; 0.613 µM in the assay on MDA-MB-231 breast; greater than 100 µM in the assay with OVCAR-4 ovarian; 0.139 µM in the assay with RPMI-8226 leukemia; greater than 100 µM in the assay on K-562 leukemia; 0.376 µM in the assay on SK-MEL-5 melanoma. For the same compound, the TGI was greater than 100 µM in the assay on SF-268 CNS and 0.373 µM in the assay on A498 renal.

For `COc1ccc(-c2nn(-c3cccc(NC(=O)c4ccc5c(c4)OCCO5)c3)cc2-c2ccncc2)cc1Cl`, the GI50 is 2.62 µM in the assay with SW-620 colon; 2.11 µM in the assay with MDA-MB-231 breast; 4.39 µM with OVCAR-4 ovarian; 1.36 µM with RPMI-8226 leukemia; 0.71 µM in the assay on K-562 leukemia; 0.968 µM in the assay on SK-MEL-5 melanoma. Besides, the values for the GI50 in the assay on SF-268 CNS and in the assay on A498 renal were 3.75 µM and 0.422 µM, respectively. Moreover, the TGI is 19.2 µM with SW-620 colon; 12.2 µM in the assay on MDA-MB-231 breast; greater than 100 µM in the assay with OVCAR-4 ovarian; 6.65 µM in the assay with RPMI-8226 leukemia; 15.9 µM with K-562 leukemia; 3.3 µM in the assay with SK-MEL-5 melanoma. Further, the TGI in the assay with SF-268 CNS is 34 µM; in the assay with A498 renal, 3.45 µM.

In the case of `COc1cc2nccc(Oc3ccc(NC(=O)C4(C(=O)Nc5ccc(F)cc5)CC4)cc3)c2cc1Oc1ccc(N)cn1`, the GI50 in the assay with SW-620 colon is 2.57 µM; with MDA-MB-231 breast, 2.44 µM; in the assay with OVCAR-4 ovarian, 3.73 µM; with RPMI-8226 leukemia, 3.99 µM; in the assay with K-562 leukemia, 0.9 µM; with SK-MEL-5 melanoma, 2.03 µM. Further, the GI50 in the assay on SF-268 CNS is 3.11 µM; in the assay on A498 renal, 1.6 µM. The TGI is greater than 100 µM with SW-620 colon; 8.42 µM in the assay on MDA-MB-231 breast; greater than 100 µM in the assay with OVCAR-4 ovarian; 78.6 µM in the assay on RPMI-8226 leukemia; greater than 100 µM in the assay on K-562 leukemia; 4.43 µM in the assay on SK-MEL-5 melanoma. Further, the TGI in the assay with SF-268 CNS is greater than 100 µM; in the assay on A498 renal it was 4.33 µM.

Consider `CCOC(=O)c1c2c(n(Cc3ccccc3)c1C)-c1ccccc1C(=O)C2=O`, for which the GI50 in the assay on SW-620 colon is 11.7 µM; with MDA-MB-231 breast, 13.1 µM; with OVCAR-4 ovarian it was 10.9 µM; in the assay with RPMI-8226 leukemia it was 13.2 µM; in the assay with K-562 leukemia, 17.1 µM; in the assay with SK-MEL-5 melanoma, 18 µM. Moreover, the GI50 in the assay on SF-268 CNS was 19.5 µM; in the assay with A498 renal it was 24.6 µM. The TGI in the assay on SW-620 colon was 28.4 µM; in the assay with MDA-MB-231 breast it was 27.9 µM; in the assay with OVCAR-4 ovarian it was 25.4 µM; in the assay with RPMI-8226 leukemia, 62.2 µM; in the assay on K-562 leukemia, greater than 100 µM; in the assay with SK-MEL-5 melanoma it was 41.2 µM. Moreover, the TGI with SF-268 CNS was 47.2 µM; in the assay on A498 renal, 60 µM.

As for `CN(C)c1ccc(/C=C2\N=C(c3ccc([N+](=O)[O-])cc3)OC2=O)cc1`, the TGI in the assay with SW-620 colon, in the assay on MDA-MB-231 breast, in the assay on OVCAR-4 ovarian, in the assay with RPMI-8226 leukemia, in the assay on K-562 leukemia and with SK-MEL-5 melanoma was greater than 100 µM each time. Moreover, the TGI with SF-268 CNS and in the assay on A498 renal was greater than 100 µM in each case.
